Laboratory results taken from patent publication US12281119B2, “Imidazo[2,1-f][1,2,4]triazin-4-amine derivatives as TLR7 agonist” (BEIGENE, LTD., priority 2019, dated 2025).

Columns and labels:
human TLR 8 protein = target: T1, human TLR 8 protein (Homo sapiens, UniProt Q9NR97); test: TLR8 stimulation determined using HEK-Blue Detection; assay type: cell-based; details: HEK-Blue hTLR8 cells, 16 hr, relative to Resiquimod or Motolimod maximum
T1 construct: expressed in transfected cells; host or cells: HEK293 (HEK-Blue hTLR8)
T1 sequence (Q9NR97 27-1041): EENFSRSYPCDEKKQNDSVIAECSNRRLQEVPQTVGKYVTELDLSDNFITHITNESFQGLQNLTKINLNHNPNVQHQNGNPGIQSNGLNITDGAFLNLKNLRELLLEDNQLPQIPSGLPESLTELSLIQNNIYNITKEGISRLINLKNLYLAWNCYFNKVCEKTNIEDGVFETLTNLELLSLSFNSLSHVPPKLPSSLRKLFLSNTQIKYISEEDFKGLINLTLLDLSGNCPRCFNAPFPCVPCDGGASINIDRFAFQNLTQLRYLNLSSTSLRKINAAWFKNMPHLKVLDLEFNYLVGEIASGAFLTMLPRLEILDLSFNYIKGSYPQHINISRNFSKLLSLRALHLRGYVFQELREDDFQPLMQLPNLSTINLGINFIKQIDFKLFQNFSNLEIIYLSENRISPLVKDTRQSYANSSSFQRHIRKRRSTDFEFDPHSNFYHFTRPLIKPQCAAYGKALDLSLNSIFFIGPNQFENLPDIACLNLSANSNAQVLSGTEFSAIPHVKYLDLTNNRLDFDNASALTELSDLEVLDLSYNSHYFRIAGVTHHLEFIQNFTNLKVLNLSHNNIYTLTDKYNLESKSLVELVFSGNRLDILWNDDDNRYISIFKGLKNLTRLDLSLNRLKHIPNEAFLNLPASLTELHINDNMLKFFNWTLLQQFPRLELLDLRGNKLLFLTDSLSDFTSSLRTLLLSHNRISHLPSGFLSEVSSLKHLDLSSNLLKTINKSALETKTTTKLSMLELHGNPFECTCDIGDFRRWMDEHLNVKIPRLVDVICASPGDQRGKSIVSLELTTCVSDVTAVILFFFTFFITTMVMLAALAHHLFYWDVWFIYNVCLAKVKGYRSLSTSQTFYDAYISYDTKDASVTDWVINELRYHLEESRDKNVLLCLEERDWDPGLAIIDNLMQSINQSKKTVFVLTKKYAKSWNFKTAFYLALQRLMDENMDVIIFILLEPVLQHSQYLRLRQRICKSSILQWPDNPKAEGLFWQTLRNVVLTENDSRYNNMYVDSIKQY
In short: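 HEK-Blue hTLR8 cells with NF-κB/AP-1-driven SEAP reporter, 40000 cells/well, treated with 10-point dilutions (1 nM-10 uM final, 0.1% DMSO) for 16 hr at 37° C. SEAP read as OD 620-655 nm. EC50 derived from percent of maximum activation set by Resiquimod or Motolimod.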

human TLR7 = target: T2, human TLR7 (Homo sapiens, UniProt Q9NYK1); test: TLR7 stimulation determined using HEK-Blue Detection; assay type: cell-based; set-up: expressed in transfected cells; host or cells: HEK293 (HEK-Blue hTLR7); details: HEK-Blue hTLR7 cells, HEK-Blue Detection (A77-A124), 16 hr, relative to Resiquimod maximum
T2 sequence (Q9NYK1 27-1049): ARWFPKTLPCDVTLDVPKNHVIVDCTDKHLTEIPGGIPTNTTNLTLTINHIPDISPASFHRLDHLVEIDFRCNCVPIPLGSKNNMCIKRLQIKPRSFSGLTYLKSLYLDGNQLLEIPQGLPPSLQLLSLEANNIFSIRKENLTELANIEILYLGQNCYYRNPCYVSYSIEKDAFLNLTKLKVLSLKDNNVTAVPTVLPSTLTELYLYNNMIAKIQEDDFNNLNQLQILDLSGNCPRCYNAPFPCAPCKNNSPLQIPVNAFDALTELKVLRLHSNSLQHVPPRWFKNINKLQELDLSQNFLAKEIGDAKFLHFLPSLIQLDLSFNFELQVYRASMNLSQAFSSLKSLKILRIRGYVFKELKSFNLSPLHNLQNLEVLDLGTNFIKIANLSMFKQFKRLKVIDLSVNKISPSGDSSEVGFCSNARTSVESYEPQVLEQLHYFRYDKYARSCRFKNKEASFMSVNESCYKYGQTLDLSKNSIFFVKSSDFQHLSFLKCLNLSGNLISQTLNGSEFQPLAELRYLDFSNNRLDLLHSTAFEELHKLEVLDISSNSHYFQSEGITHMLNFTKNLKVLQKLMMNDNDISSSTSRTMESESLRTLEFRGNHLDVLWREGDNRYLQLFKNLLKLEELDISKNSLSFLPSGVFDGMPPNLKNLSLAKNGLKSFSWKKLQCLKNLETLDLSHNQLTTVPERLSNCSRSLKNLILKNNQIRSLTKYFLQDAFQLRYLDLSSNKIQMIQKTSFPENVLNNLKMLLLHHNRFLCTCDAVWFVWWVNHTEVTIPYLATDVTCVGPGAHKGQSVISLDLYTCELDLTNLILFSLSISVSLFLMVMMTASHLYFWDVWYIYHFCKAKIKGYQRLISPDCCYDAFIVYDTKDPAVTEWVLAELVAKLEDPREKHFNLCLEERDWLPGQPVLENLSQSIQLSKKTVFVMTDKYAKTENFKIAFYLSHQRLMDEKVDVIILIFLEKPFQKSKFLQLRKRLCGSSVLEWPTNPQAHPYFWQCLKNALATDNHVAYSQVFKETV
Source text: TLR7 Stimulation Determined Using HEK-Blue Detection
This assay was designed for studying the stimulation of human TLR7 protein in HELK-Blue hTLR7 tool cell line by monitoring the activation of NF-κB. HEK-Blue hTLR7 cells were obtained by co-transfection of the hTLR7 gene and an optimized secreted embryonic alkaline phosphatase (SLAP) reporter gene into HEK293 cells. The SLAP reporter gene was placed under the control of the IFN-β minimal promoter fused to five NF-κB and AP-1-binding sites. Stimulation with a TLR7 ligand activates NF-κB and AP-1 which induce the expression of SLAP. Levels of SLAP can be easily determined with HEK-Blue Detection, a cell culture medium that allows for real-time detection of SLAP. HLK-Blue Detection contains all the nutrients necessary for cell growth and a specific SLAP color substrate. The hydrolysis of the substrate by SLAP produces a purple/blue color that can be measured with a spectrophotometer.
When growing to 50-80%0 confluency, HLK-Blue hTLR7 cells were plated into 96-well plate (costar 3599) at a density of 40000 cells/well. Then compounds were added with serial dilutions over 10 points with a 0.04 nM-10 μM final concentration range in 0.1% DMSO/BLK-Blue Detection. The plates were then incubated for 16 hr at 37° C. in […] and vortex for 30s before measurement. The optical density at 620-655 nm was read on BMG PHLRAstar FSX instrument. The EC50 for each compound was determined by calculating the percentages of the maximum activation identified with Resiquimod.

EC50 (human TLR 8 protein)	EC50 (human TLR7)	SMILES
532 nM	13 nM	CCCC(CCO)Oc1nc(N)c2ncc(Cc3ccc(OC)c(OCCNC)c3)n2n1 (single isomer, unassigned) [Compound A117, (R or S)-3-((4-amino-7-(4-methoxy-3-(2-(methylamino)ethoxy)benzyl)imidazo[2,1-f][1,2,4]triazin-2-yl)oxy)hexan-1-ol]
8.6 nM	0.78 nM	CCCC(CCO)Oc1nc(N)c2ncc(Cc3ccc(OCCNC)cc3OC)n2n1 (single isomer, unassigned) [Compound A101, (R or S)-3-((4-amino-7-(2-methoxy-4-(2-(methylamino)ethoxy)benzyl)imidazo[2,1-f][1,2,4]triazin-2-yl)oxy)hexan-1-ol]
47 nM	1.9 nM	CCCC(CCO)Oc1nc(N)c2ncc(Cc3ccc(OCCNC)c(F)c3F)n2n1 (single isomer, unassigned) [Compound A111, (R or S)-3-((4-amino-7-(2,3-difluoro-4-(2-(methylamino)ethoxy)benzyl)imidazo[2,1-f][1,2,4]triazin-2-yl)oxy)hexan-1-ol]
7 nM	0.72 nM	CCCC(CCO)Oc1nc(N)c2ncc(Cc3ccc(OCCNC)cc3F)n2n1 (single isomer, unassigned) [Compound A115, (R or S)-3-((4-amino-7-(2-fluoro-4-(2-(methylamino)ethoxy)benzyl)imidazo[2,1-f][1,2,4]triazin-2-yl)oxy)hexan-1-ol]
105 nM	1.2 nM	CCCC(CCO)Oc1nc(N)c2ncc(Cc3ccc(OCCNC)c4ccccc34)n2n1 (single isomer, unassigned) [Compound A124, (R or S)-3-((4-amino-7-((4-(2-(methylamino)ethoxy)naphthalen-1-yl)methyl)imidazo[2,1-f][1,2,4]triazin-2-yl)oxy)hexan-1-ol]
12 nM	1.6 nM	CCCC(CCO)Oc1nc(N)c2ncc(Cc3ccc(OCCNC)c(F)c3)n2n1 (single isomer, unassigned) [Compound A106, (S or R)-3-((4-amino-7-(3-fluoro-4-(2-(methylamino)ethoxy)benzyl)imidazo[2,1-f][1,2,4]triazin-2-yl)oxy)hexan-1-ol]
872 nM	122 nM	CCCC(CCO)Oc1nc(N)c2ncc(Cc3ccc(OCCNC)cc3)n2n1 (single isomer, unassigned) [Compound A92, (R or S) 3-((4-amino-7-(4-(2-(methylamino)ethoxy)benzyl)imidazo[2,1-f][1,2,4]triazin-2-yl)oxy)hexan-1-ol]
129 nM	14.4 nM	CCC[C@H](C)Oc1nc(N)c2ncc(Cc3ccc(OCCNC)c(F)c3)n2n1 [Compound A99, (S)-7-(3-fluoro-4-(2-(methylamino)ethoxy)benzyl)-2-(pentan-2-yloxy)imidazo[2,1-f][1,2,4]triazin-4-amine]
458 nM	42.6 nM	CCC(CC)Oc1nc(N)c2ncc(Cc3ccc(OCCNC)nc3)n2n1 [Compound A83, 7-((6-(2-(methylamino)ethoxy)pyridin-3-yl)methyl)-2-(pentan-3-yloxy)imidazo[2,1-f][1,2,4]triazin-4-amine]
541 nM	57.7 nM	CCCC(CCO)Oc1nc(N)c2ncc(Cc3ccc(OCCCNC)nc3)n2n1 (centres unmarked) [Compound A86, 3-((4-amino-7-((6-(3-(methylamino)propoxy)pyridin-3-yl)methyl)imidazo[2,1-f][1,2,4]triazin-2-yl)oxy)hexan-1-ol]
2970 nM	146 nM	CCCC(CCO)Oc1nc(N)c2ncc(Cc3ccc(CCNC)cc3)n2n1 (single isomer, unassigned) [Compound A119, (R or S)-3-((4-amino-7-(4-(2-(methylamino)ethyl)benzyl)imidazo[2,1-f][1,2,4]triazin-2-yl)oxy)hexan-1-ol]
21 nM	11 nM	CCCC(CCO)Oc1nc(N)c2ncc(Cc3cccc(OCCNC)c3OC)n2n1 (single isomer, unassigned) [Compound A118, (R or S)-3-((4-amino-7-(2-methoxy-3-(2-(methylamino)ethoxy)benzyl)imidazo[2,1-f][1,2,4]triazin-2-yl)oxy)hexan-1-ol]
13.5 nM	1.7 nM	CCCC(CCO)Oc1nc(N)c2ncc(Cc3ccc(OCCNC)cc3)n2n1 (single isomer, unassigned) [Compound A93, (S or R) 3-((4-amino-7-(4-(2-(methylamino)ethoxy)benzyl)imidazo[2,1-f][1,2,4]triazin-2-yl)oxy)hexan-1-ol]
> 10000 nM	> 10000 nM	CNCCOc1ccc(Cc2cnc3c(N)nc(OCC4CCCO4)nn23)cn1 (centres unmarked) [Compound A88, 7-((6-(2-(methylamino)ethoxy)pyridin-3-yl)methyl)-2-((tetrahydrofuran-2-yl)methoxy)imidazo[2,1-f][1,2,4]triazin-4-amine]
9 nM	0.93 nM	CCCC(CCO)Oc1nc(N)c2ncc(Cc3cc(F)c(OCCNC)cc3F)n2n1 (single isomer, unassigned) [Compound A112, (R or S)-3-((4-amino-7-(2,5-difluoro-4-(2-(methylamino)ethoxy)benzyl)imidazo[2,1-f][1,2,4]triazin-2-yl)oxy)hexan-1-ol]

SMILES	EC50 (human TLR 8 protein)	EC50 (human TLR7)
CC[C@H](C)Oc1nc(N)c2ncc(Cc3ccc(OCCNC)nc3)n2n1 [Compound A89, (S)-2-(sec-butoxy)-7-((6-(2-(methylamino)ethoxy)pyridin-3-yl)methyl)imidazo[2,1-f][1,2,4]triazin-4-amine]	199 nM	10 nM
